# Assays:
# IGROV1 = assay: NCI-60 screening (SRB); type: cell-based, human
# MOLT-4 = assay: NCI-60 screening (SRB); type: cell-based, human; details: five-dose
# RPMI-8226 = assay: NCI-60 screening (SRB); type: cell-based, human; details: five-dose
# HCT-15 = assay: NCI-60 screening (SRB); type: cell-based, human; details: five-dose
# PC-3 = assay: NCI-60 screening (SRB); type: cell-based, human; details: five-dose
# LOX IMVI = assay: NCI-60 screening (SRB); type: cell-based, human
# HOP-62 = assay: NCI-60 screening (SRB); type: cell-based, human; details: five-dose
# HCT-116 = assay: NCI-60 screening (SRB); type: cell-based, human; details: five-dose
# UACC-257 = assay: NCI-60 screening (SRB); type: cell-based, human; details: five-dose
# UO-31 = assay: NCI-60 screening (SRB); type: cell-based, human; details: five-dose
# A549/ATCC = assay: NCI-60 screening (SRB); type: cell-based, human; details: five-dose
# NCI-H23 = assay: NCI-60 screening (SRB); type: cell-based, human; details: five-dose
# HL-60(TB) = assay: NCI-60 screening (SRB); type: cell-based, human; details: HL-60(TB), five-dose
# SK-MEL-2 = assay: NCI-60 screening (SRB); type: cell-based, human; details: five-dose
# Breast cancer = assay: NCI-60 screening (SRB), subpanel; type: cell-based
# Source text: (§1) The experimental data allow the assessment of the cytostatic effect, indicated by growth inhibition values ranging between 0 and 100, as well as of the cytotoxic effect, indicated by negative values.
# (§2) The mean GI50 (molar concentration of the compound that inhibits 50% net cell growth), TGI (molar concentration of the compound leading to the total inhibition), and LC50 (molar concentration of the compound leading to 50% net cell death (presented in negative logarithm)) values across each cell line are shown in Table 2.
# (§3) The selectivity index (SI), calculated as the ratio between the full panel MG_MID60 (μM) of compounds 4, 6, and 9 by their respective subpanels MG_MID of the cell line (μM), was introduced as a quantification tool for the selectivity of each compound in terms of anticancer effect (Table 3).
# (§4) Primary anticancer assays were performed according to the NCI protocol, as described elsewhere (see e.g., http://dtp.nci.nih.gov accessed on 1 November 2018). The compounds were added at a single concentration, and the cell cultures were incubated for 48 h. The end point determinations were made with a protein-binding dye, sulforhodamine B (SRB). […] The percentage of growth was evaluated spectrophotometrically versus controls not treated with test agents after 48 h exposure and using SRB protein assay to estimate cell viability or growth. Three antitumor activity dose-response parameters were calculated for each cell line. Furthermore, mean graph midpoints (MG_MID) were calculated for each of the parameters, giving an average activity parameter over all cell lines for the tested compound. For the MG_MID calculation, insensitive cell lines were included with the highest concentration tested.
# Colon Cancer = assay: NCI-60 screening (SRB), subpanel; type: cell-based
# Source text: as §1, §2, §3, §4
# Melanoma = assay: NCI-60 screening (SRB), subpanel; type: cell-based
# Source text: as §1, §2, §3, §4
# Ovarian cancer = assay: NCI-60 screening (SRB), subpanel; type: cell-based
# Source text: as §1, §2, §3, §4
# Prostate cancer = assay: NCI-60 screening (SRB), subpanel; type: cell-based
# Source text: as §1, §2, §3, §4
# NSC lung cancer = assay: NCI-60 screening (SRB), subpanel; type: cell-based
# Source text: as §1, §2, §3, §4
# Leukemia = assay: NCI-60 screening (SRB), subpanel; type: cell-based; details: Leukemia; MG_MID60/subpanel MG_MID
# Source text: as §1, §2, §3, §4
# Renal Cancer = assay: NCI-60 screening (SRB), subpanel; type: cell-based
# Source text: as §1, §2, §3, §4
# SNB-19 = assay: NCI-60 screening (SRB); type: cell-based, human; details: five-dose
# SK-OV-3 = assay: NCI-60 screening (SRB); type: cell-based, human; details: five-dose
# SF-295 = assay: NCI-60 screening (SRB); type: cell-based, human; details: five-dose
# [1] = Homo sapiens, read-out: LC50 (the source's name)
compound,measurement,setting,value
"CCN1CCN(C(=O)[C@]23CC[C@@H](C)[C@H](C)[C@H]2C2=CC[C@@H]4[C@@]5(C)CCC(=O)C(C)(C)[C@@H]5CC[C@@]4(C)[C@]2(C)CC3)CC1 [Compound 4, N-(3-oxo-ursan-12-en-28-oyl)-ethylpiperazine]",GI50,"IGROV1; Homo sapiens, IGROV-1, five-dose",1040 nM
same,CC50,"IGROV1; Homo sapiens, IGROV-1, five-dose, read-out: LC50 (the source's name)",19100 nM
same,TGI,IGROV1; five-dose,4850 nM
same,GI50,MOLT-4; Homo sapiens,994 nM
same,CC50,MOLT-4; [1],> 50000 nM
same,TGI,MOLT-4,2900 nM
same,GI50,RPMI-8226; Homo sapiens,809 nM
same,CC50,RPMI-8226; [1],4900 nM
same,TGI,RPMI-8226,1990 nM
same,GI50,HCT-15; Homo sapiens,977 nM
same,CC50,HCT-15; [1],7410 nM
same,TGI,HCT-15,2390 nM
same,GI50,PC-3; Homo sapiens,875 nM
same,CC50,PC-3; [1],18300 nM
same,TGI,PC-3,3170 nM
same,GI50,"LOX IMVI; Homo sapiens, LOX IMVI, five-dose",821 nM
same,CC50,"LOX IMVI; Homo sapiens, LOX IMVI, five-dose, read-out: LC50 (the source's name)",2800 nM
same,TGI,"LOX IMVI; LOX IMVI, five-dose",1520 nM
same,Growth %,"LOX IMVI; LOXIMVI (Melanoma), 1 dose 10 µM",−85.17%
same,GI50,HOP-62; Homo sapiens,1380 nM
same,LC50,HOP-62; Homo sapiens,> 50000 nM
same,TGI,HOP-62,3090 nM
same,GI50,HCT-116; Homo sapiens,798 nM
same,CC50,HCT-116; [1],3090 nM
same,TGI,HCT-116,1570 nM
same,GI50,UACC-257; Homo sapiens,985 nM
same,CC50,UACC-257; [1],4880 nM
same,TGI,UACC-257,2190 nM
same,GI50,UO-31; Homo sapiens,726 nM
same,CC50,UO-31; [1],2790 nM
same,TGI,UO-31,1420 nM
same,GI50,A549/ATCC; Homo sapiens,1470 nM
same,CC50,A549/ATCC; [1],21800 nM
same,TGI,A549/ATCC,5980 nM
same,GI50,NCI-H23; Homo sapiens,1080 nM
same,CC50,NCI-H23; [1],11600 nM
same,TGI,NCI-H23,2900 nM
same,TGI,HL-60(TB),2740 nM
same,GI50,HL-60(TB); Homo sapiens,976 nM
same,CC50,HL-60(TB); [1],> 50000 nM
same,GI50,SK-MEL-2; Homo sapiens,1290 nM
same,CC50,SK-MEL-2; [1],16200 nM
same,TGI,SK-MEL-2,3330 nM
same,TGI MG_MID,"Breast cancer; Breast cancer subpanel, five-dose",2330 nM
same,SI (TGI),"Breast cancer; Breast cancer, MG_MID60/subpanel MG_MID",1.17
same,GI50,"Breast cancer; Homo sapiens, Breast cancer subpanel, five-dose, read-out: GI50 MG_MID",970 nM
same,CC50,"Breast cancer; Homo sapiens, Breast cancer subpanel, five-dose, read-out: LC50 MG_MID",16000 nM
same,TGI MG_MID,"Colon Cancer; Colon Cancer subpanel, five-dose",2030 nM
same,SI (TGI),"Colon Cancer; Colon Cancer, MG_MID60/subpanel MG_MID",1.35
same,GI50,"Colon Cancer; Homo sapiens, Colon Cancer subpanel, five-dose, read-out: GI50 MG_MID",940 nM
same,CC50,"Colon Cancer; Homo sapiens, Colon Cancer subpanel, five-dose, read-out: LC50 MG_MID",5920 nM
same,GI50,"Melanoma; Homo sapiens, Melanoma subpanel, five-dose, read-out: GI50 MG_MID",930 nM
same,CC50,"Melanoma; Homo sapiens, Melanoma subpanel, five-dose, read-out: LC50 MG_MID",4940 nM
same,TGI MG_MID,"Melanoma; Melanoma subpanel, five-dose",1930 nM
same,SI (TGI),"Melanoma; Melanoma, MG_MID60/subpanel MG_MID",1.42
same,GI50,"Ovarian cancer; Homo sapiens, Ovarian cancer subpanel, five-dose, read-out: GI50 MG_MID",1190 nM
same,CC50,"Ovarian cancer; Homo sapiens, Ovarian cancer subpanel, five-dose, read-out: LC50 MG_MID",16200 nM
same,SI (TGI),"Ovarian cancer; Ovarian Cancer, MG_MID60/subpanel MG_MID",0.77
same,TGI MG_MID,"Ovarian cancer; Ovarian cancer subpanel, five-dose",3550 nM
same,GI50,"Prostate cancer; Homo sapiens, Prostate cancer subpanel, five-dose, read-out: GI50 MG_MID",1270 nM
same,CC50,"Prostate cancer; Homo sapiens, Prostate cancer subpanel, five-dose, read-out: LC50 MG_MID",18400 nM
same,TGI MG_MID,"Prostate cancer; Prostate cancer subpanel, five-dose",4400 nM
same,SI (TGI),"Prostate cancer; Prostate cancer, MG_MID60/subpanel MG_MID",0.62
same,GI50,"NSC lung cancer; Homo sapiens, NSC lung cancer subpanel, five-dose, read-out: GI50 MG_MID",1180 nM
same,CC50,"NSC lung cancer; Homo sapiens, NSC lung cancer subpanel, five-dose, read-out: LC50 MG_MID",17000 nM
same,TGI MG_MID,"NSC lung cancer; NSC lung cancer subpanel, five-dose",3600 nM
same,SI (TGI),"NSC lung cancer; NSCL cancer, MG_MID60/subpanel MG_MID",0.76
same,SI (TGI),Leukemia,1.12
same,GI50,"Renal Cancer; Homo sapiens, Renal cancer subpanel, five-dose, read-out: GI50 MG_MID",950 nM
same,LC50 (50% net cell kill),"Renal Cancer; Homo sapiens, Renal cancer subpanel, five-dose, read-out: LC50 MG_MID",8380 nM
same,SI (TGI),"Renal Cancer; Renal Cancer, MG_MID60/subpanel MG_MID",1.08
same,TGI MG_MID,"Renal Cancer; Renal cancer subpanel, five-dose",2530 nM
same,GI50,SNB-19; Homo sapiens,849 nM
same,CC50,SNB-19; [1],3470 nM
same,TGI,SNB-19,1720 nM
same,GI50,SK-OV-3; Homo sapiens,1150 nM
same,CC50,SK-OV-3; [1],17200 nM
same,TGI,SK-OV-3,4830 nM
same,GI50,SF-295; Homo sapiens,820 nM
same,CC50,SF-295; [1],3080 nM
same,TGI,SF-295,1590 nM

# — publication PMC8536124 (International Journal of Molecular Sciences, 2021)
